Data taken from PubChem BioAssay (NCI).
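Protocol summary: plate cells (96-well), add compound at 5 concentrations, incubate 48 h, interpolate endpoints linearly. TGI denotes the concentration required for complete inhibition of growth.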

Key:
Assay in all cases: inhibition of tumour cell growth, NCI panel, 48 h
[1] = test system: SW-620 colon
[2] = test system: BT-549 breast
[3] = test system: COLO 205 colon
[4] = test system: SF-295 CNS
[5] = test system: MDA-N
[6] = test system: OVCAR-4 ovarian
[7] = test system: HCC-2998 colon
[8] = test system: HT29 colon
[9] = test system: SK-MEL-28 melanoma
[10] = test system: MDA-MB-231 breast
[11] = test system: NCI-H522 lung
[12] = test system: A498 renal
[13] = test system: MALME-3M melanoma
[14] = test system: HCT-15 colon
[15] = test system: TK-10 renal
[16] = test system: RXF 393 renal
[17] = test system: SK-MEL-2 melanoma
[18] = test system: OVCAR-3 ovarian
[19] = test system: MOLT-4 leukemia
[20] = test system: KM12 colon
[21] = test system: DU-145 prostate
[22] = test system: HOP-92 NSCLC
[23] = test system: T-47D breast
[24] = test system: SNB-75 CNS
[25] = test system: LOX IMVI melanoma
[26] = test system: SN12C renal
[27] = test system: SNB-19 CNS
[28] = test system: OVCAR-5 ovarian
[29] = test system: MCF7 breast
[30] = test system: NCI/ADR-RES ovarian
[31] = test system: HCT-116 colon
[32] = test system: SR leukemia
[33] = test system: EKVX NSCLC
[34] = test system: RPMI-8226 leukemia
[35] = test system: HL-60(TB) leukemia
[36] = test system: MDA-MB-435
[37] = test system: NCI-H226 lung
[38] = test system: NCI-H23 lung
[39] = test system: ACHN renal
[40] = test system: CCRF-CEM leukemia
[41] = test system: K-562 leukemia
[42] = test system: UACC-62 melanoma
[43] = test system: A549 NSCLC
[44] = test system: HS 578T breast
[45] = test system: OVCAR-8 ovarian
[46] = test system: PC-3 prostate
[47] = test system: UACC-257 melanoma
[48] = test system: NCI-H460 lung
[49] = test system: CAKI-1 renal
[50] = test system: SF-268 CNS
[51] = test system: SF-539 CNS
[52] = test system: UO-31 renal
[53] = test system: U251 CNS
[54] = test system: IGROV1 ovarian
[55] = test system: SK-OV-3 ovarian
[56] = test system: M14 melanoma
[57] = test system: 786-0 renal
[58] = test system: HOP-62 NSCLC
[59] = test system: SK-MEL-5 melanoma

Structure (SMILES): O=S(/C=C/C=C/S(=O)(=O)c1ccccc1)c1ccccc1 (centres undefined)
- TGI [1]: 2.67 µM
- TGI [2]: > 10 µM
- TGI [3]: 3.48 µM
- TGI [4]: > 10 µM
- TGI [5]: > 5.51 µM
- TGI [6]: 4.33 µM
- TGI [7]: > 10 µM
- TGI [8]: > 10 µM
- TGI [9]: 4.35 µM
- TGI [10]: 8.8 µM
- TGI [11]: 3.17 µM
- TGI [12]: > 10 µM
- TGI [13]: 4.22 µM
- TGI [14]: 3.97 µM
- TGI [15]: 6.08 µM
- TGI [16]: 3.31 µM
- TGI [17]: 4.2 µM
- TGI [18]: 3.44 µM
- TGI [19]: 4.11 µM
- TGI [20]: > 4.88 µM
- TGI [21]: > 7 µM
- TGI [22]: 4.87 µM
- TGI [23]: > 4.97 µM
- TGI [24]: > 10 µM
- TGI [25]: > 3.89 µM
- TGI [26]: 3.94 µM
- TGI [27]: > 10 µM
- TGI [28]: > 10 µM
- TGI [29]: 3.17 µM
- TGI [30]: 5.02 µM
- TGI [31]: 2.84 µM
- TGI [32]: 3.07 µM
- TGI [33]: > 10 µM
- TGI [34]: 3.06 µM
- TGI [35]: 0.909 µM
- TGI [36]: 5.96 µM
- TGI [37]: > 10 µM
- TGI [38]: 4.39 µM
- TGI [39]: > 9.31 µM
- TGI [40]: 2.27 µM
- TGI [41]: 2.83 µM
- TGI [42]: > 7.77 µM
- TGI [43]: > 10 µM
- TGI [44]: > 10 µM
- TGI [45]: 3.7 µM
- TGI [46]: > 10 µM
- TGI [47]: 3.77 µM
- TGI [48]: > 10 µM
- TGI [49]: 3.43 µM
- TGI [50]: > 9.08 µM
- TGI [51]: > 10 µM
- TGI [52]: 5.64 µM
- TGI [53]: > 10 µM
- TGI [54]: > 10 µM
- TGI [55]: > 10 µM
- TGI [56]: 1.56 µM
- TGI [57]: 1.61 µM
- TGI [58]: > 10 µM
- TGI [59]: 3.91 µM
